From patent publication US12303497B2, “Anti-androgens for the treatment of metastatic castration-sensitive prostate cancer” (priority 2019, dated 2025)

Columns and labels:
T877A AR mutant = T877A AR mutant (Homo sapiens, UniProt P10275, T878A); conditions: literature; cited from earlier work
[1] = target: organic anion transporter 1 (Homo sapiens, UniProt Q4U2R8)
OATP1B1 = OATP1B1 (Homo sapiens, UniProt Q9Y6L6)
BCRP = BCRP (Homo sapiens, UniProt Q9UNQ0); conditions: not told
CYP2C9 = CYP2C9 (Homo sapiens, UniProt P11712)
CYP2B6 = CYP2B6 (Homo sapiens, UniProt P20813)
CYP2B6, sequence (P20813 whole entry): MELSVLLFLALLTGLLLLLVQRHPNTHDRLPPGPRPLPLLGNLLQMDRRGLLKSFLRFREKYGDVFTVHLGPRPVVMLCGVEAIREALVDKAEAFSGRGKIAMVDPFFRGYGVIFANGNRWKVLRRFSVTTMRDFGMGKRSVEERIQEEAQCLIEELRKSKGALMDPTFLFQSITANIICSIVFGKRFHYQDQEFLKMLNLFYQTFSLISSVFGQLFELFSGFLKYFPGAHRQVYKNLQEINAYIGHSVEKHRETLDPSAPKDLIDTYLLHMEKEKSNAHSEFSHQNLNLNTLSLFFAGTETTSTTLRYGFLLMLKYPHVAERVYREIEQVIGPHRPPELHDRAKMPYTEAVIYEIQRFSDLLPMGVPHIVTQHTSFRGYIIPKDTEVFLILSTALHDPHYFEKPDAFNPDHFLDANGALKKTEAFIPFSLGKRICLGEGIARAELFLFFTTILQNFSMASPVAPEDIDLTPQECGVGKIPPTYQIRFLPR

[2] = tested on: multidrug and toxin extrusions (MATEs); assay: In vitro transporter inhibition; format: in vitro ADME
CYP1A2 = CYP1A2 (Homo sapiens, UniProt P05177); assay: In vitro effect on CYP; conditions: therapeutically relevant concentrations
CYP2C19 = CYP2C19 (Homo sapiens, UniProt P33261)
[3] = Single oral administration of radiolabeled apalutamide (AUC share, excretion); format: in vivo
[4] = human, in vivo
P-gp = P-gp (Homo sapiens, UniProt P08183); conditions: not told
P-gp, sequence (P08183 whole entry): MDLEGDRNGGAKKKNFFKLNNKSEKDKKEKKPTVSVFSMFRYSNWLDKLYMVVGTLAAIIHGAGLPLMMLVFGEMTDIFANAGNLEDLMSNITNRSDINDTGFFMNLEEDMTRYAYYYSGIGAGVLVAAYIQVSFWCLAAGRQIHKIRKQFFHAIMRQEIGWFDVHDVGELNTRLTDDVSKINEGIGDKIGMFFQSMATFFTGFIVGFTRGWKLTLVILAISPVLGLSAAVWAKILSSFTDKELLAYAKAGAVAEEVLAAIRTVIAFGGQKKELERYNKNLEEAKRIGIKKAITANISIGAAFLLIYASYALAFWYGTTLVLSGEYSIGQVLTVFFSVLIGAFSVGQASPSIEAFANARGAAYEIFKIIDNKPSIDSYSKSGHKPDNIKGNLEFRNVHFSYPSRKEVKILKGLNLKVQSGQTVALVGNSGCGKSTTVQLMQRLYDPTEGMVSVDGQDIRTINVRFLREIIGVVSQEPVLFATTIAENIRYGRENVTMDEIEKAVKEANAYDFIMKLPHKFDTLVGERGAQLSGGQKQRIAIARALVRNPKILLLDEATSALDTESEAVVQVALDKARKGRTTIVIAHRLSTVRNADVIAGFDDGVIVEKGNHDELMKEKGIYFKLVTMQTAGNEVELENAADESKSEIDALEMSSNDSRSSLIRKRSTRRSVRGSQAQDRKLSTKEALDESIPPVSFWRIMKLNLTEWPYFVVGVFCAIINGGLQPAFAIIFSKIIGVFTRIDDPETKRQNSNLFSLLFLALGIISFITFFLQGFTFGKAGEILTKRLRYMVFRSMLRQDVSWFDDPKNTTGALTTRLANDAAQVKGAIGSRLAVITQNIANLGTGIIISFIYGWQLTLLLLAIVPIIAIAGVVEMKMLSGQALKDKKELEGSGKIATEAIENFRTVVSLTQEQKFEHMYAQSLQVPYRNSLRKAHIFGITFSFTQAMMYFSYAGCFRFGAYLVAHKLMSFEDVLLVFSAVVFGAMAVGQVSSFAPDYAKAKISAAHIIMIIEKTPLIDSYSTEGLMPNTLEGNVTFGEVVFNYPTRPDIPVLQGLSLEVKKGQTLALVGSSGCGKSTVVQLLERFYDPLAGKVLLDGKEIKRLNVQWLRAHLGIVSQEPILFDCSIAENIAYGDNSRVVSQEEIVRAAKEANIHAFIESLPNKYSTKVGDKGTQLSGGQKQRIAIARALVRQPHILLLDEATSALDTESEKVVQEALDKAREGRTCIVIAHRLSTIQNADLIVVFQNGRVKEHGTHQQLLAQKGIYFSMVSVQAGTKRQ

Plasma protein binding = format: in vitro ADME
OATP1B3 = OATP1B3 (Homo sapiens, UniProt Q9NPD5)
CYP2D6 = CYP2D6 (Homo sapiens, UniProt P10635)
CYP2D6, sequence (P10635 whole entry): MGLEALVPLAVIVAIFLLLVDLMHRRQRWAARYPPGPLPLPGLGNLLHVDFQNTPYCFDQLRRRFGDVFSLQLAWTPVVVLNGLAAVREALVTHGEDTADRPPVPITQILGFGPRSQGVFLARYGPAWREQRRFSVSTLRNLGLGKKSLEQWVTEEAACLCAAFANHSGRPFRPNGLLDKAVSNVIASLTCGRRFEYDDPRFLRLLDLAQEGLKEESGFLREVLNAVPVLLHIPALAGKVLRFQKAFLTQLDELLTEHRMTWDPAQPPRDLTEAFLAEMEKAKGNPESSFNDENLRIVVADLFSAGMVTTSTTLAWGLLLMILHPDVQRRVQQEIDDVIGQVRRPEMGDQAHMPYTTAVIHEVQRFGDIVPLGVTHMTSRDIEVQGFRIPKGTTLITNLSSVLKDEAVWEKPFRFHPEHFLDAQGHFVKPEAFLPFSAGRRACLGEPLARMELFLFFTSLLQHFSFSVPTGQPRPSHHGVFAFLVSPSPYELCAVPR

[5] = target: organic anion transporter 3 (OAT3) (Homo sapiens, UniProt Q8TCC7)
CYP3A4 = CYP3A4 (Homo sapiens, UniProt P08684)
CYP3A4, sequence (P08684 whole entry): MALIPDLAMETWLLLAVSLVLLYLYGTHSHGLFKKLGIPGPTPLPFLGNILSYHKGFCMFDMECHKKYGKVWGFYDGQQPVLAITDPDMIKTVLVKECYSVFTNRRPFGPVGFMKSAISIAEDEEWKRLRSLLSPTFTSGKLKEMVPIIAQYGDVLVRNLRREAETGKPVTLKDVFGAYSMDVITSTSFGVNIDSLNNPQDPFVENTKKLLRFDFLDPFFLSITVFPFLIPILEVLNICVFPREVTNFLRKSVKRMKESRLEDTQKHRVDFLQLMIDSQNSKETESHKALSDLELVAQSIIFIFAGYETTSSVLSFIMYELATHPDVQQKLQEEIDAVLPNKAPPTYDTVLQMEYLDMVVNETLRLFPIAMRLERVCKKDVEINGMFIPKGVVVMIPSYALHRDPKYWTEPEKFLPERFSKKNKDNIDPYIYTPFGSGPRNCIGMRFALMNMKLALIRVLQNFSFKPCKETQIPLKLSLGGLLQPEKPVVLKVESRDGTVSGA

CYP2C8 = target: T1, CYP2C8 (Homo sapiens, UniProt P10632)
T1 sequence (P10632 1-490): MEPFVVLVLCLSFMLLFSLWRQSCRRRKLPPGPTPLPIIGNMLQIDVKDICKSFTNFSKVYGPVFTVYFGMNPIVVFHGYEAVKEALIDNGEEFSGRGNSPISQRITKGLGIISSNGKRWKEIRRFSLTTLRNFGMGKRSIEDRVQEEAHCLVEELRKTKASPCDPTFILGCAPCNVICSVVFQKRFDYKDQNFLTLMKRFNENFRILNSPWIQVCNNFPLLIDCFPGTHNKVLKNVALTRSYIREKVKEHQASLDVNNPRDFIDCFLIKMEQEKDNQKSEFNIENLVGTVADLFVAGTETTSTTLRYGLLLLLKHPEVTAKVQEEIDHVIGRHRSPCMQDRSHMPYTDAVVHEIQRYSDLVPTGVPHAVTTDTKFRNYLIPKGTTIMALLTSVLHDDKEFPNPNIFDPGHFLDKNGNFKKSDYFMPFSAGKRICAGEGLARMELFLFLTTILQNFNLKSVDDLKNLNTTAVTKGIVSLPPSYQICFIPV

[6] = target: organic cation transporter 2 (OCT2) (Homo sapiens, UniProt O15244)
AR = AR (Homo sapiens, UniProt P10275); conditions: cited from earlier work
AR, sequence (P10275 whole entry): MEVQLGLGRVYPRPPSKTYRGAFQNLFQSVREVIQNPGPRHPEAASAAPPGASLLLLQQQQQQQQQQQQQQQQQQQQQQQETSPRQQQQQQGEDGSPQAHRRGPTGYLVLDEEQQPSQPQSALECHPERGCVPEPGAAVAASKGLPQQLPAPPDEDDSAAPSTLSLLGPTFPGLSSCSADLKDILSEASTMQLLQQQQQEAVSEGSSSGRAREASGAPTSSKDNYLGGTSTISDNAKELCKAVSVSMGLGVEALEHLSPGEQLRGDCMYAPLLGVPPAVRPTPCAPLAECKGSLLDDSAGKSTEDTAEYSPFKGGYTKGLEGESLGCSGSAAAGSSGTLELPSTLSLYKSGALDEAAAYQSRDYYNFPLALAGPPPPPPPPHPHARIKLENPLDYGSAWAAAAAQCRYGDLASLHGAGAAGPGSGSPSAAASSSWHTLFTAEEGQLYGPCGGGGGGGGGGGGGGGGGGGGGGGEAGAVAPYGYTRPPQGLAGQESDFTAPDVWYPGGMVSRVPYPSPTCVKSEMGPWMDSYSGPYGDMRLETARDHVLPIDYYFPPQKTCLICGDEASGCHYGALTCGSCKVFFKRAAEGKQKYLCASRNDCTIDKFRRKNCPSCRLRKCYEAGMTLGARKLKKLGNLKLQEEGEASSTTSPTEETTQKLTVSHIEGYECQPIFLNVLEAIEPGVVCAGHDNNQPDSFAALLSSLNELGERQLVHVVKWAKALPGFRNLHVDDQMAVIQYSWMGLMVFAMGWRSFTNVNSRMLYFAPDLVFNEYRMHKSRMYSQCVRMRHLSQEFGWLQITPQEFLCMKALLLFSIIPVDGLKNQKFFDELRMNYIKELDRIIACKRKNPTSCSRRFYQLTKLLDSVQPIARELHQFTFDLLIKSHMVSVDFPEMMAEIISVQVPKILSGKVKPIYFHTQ

[7] = up to 70 days after single oral radiolabeled dose

BCRP, sequence (Q9UNQ0 whole entry): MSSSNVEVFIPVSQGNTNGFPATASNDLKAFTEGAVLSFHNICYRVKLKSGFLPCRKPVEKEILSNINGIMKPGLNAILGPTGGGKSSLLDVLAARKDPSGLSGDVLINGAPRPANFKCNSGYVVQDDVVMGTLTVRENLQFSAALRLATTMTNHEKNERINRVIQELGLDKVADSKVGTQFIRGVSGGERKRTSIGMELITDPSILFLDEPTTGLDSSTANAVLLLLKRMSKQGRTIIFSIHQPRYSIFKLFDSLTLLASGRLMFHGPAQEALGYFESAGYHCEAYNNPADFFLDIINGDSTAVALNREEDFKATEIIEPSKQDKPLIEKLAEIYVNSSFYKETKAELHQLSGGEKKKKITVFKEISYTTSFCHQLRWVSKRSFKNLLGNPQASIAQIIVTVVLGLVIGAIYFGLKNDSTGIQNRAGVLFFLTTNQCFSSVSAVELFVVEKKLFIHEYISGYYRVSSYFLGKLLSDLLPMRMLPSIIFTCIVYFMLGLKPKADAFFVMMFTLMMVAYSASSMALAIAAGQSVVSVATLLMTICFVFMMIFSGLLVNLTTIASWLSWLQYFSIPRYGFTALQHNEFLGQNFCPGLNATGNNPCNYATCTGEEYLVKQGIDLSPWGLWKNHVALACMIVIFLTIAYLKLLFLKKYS
OATP1B1, sequence (Q9Y6L6 whole entry): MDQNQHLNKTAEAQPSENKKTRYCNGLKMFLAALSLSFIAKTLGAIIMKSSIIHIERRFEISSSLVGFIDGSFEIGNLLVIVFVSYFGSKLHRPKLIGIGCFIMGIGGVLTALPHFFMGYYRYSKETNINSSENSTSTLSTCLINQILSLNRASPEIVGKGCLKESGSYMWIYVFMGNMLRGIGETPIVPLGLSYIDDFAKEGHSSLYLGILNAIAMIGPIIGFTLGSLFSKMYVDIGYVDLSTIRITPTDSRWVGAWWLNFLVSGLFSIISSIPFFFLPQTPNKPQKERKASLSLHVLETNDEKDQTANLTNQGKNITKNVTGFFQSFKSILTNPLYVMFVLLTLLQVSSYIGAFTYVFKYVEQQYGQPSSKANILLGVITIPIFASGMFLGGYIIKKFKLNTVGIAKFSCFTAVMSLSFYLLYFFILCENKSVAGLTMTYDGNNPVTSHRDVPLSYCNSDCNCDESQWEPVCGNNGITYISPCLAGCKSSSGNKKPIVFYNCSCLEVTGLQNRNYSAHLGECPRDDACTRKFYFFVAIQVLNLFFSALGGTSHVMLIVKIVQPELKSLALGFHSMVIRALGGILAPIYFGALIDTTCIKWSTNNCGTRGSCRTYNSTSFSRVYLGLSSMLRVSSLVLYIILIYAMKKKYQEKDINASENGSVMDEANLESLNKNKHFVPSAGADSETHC

CC(C)(O)C(=O)Nc1ccc([N+](=O)[O-])c(C(F)(F)F)c1 [hydroxyflutamide]
Activity in T877A AR mutant (T877A AR mutant): AR agonists

N-desmethyl apalutamide
Inhibition of organic anion transporter 1 [1]: do not inhibit | Substrate for OATP1B1 (OATP1B1): not | Substrate for BCRP (BCRP): not | CYP2C9 inhibition (CYP2C9): weak inhibitors | CYP2B6 inhibition (CYP2B6): moderate inhibitors | Inhibition of MATEs [2]: inhibit | Effect on CYP1A2 (CYP1A2): do not affect | CYP2C19 inhibition (CYP2C19): weak inhibitors | Share of the total AUC ([3]; single oral radiolabeled apalutamide 240 mg): 44% | Dose recovered in feces as this compound [3, 7]: 2% | Dose recovered in urine as this compound [3, 7]: 2.7% | AUC at steady-state, mean [4]: 124 µg·h/mL | Cmax at steady-state, mean [4]: 5900 ng/mL | Pharmacokinetics in specific populations [4]: No clinically significant differences | Substrate for P-gp (P-gp): substrates | Bound to plasma proteins (Plasma protein binding): 95% | Substrate for OATP1B3 (OATP1B3): not | Effect on CYP2D6 (CYP2D6): do not affect | Inhibition of OAT3 [5]: inhibit | CYP3A4 inhibition (CYP3A4): weak inhibitors | CYP2C8 inhibition (CYP2C8): moderate inhibitors | Inhibition of OCT2 [6]: inhibit

CC(O)c1cc(C(=O)N[C@@H](C)Cn2ccc(-c3ccc(C#N)c(Cl)c3)n2)n[nH]1 (mixture of isomers) [Darolutamide, N-{(2S)-1-[3-(3-chloro-4-cyanophenyl)-1H-pyrazol-1-yl]propan-2-yl}-5-(1-hydroxyethyl)-1H-pyrazole-3-carboxamide]
Affinity of binding to AR (AR): high affinity
